Literature values, collected in patent US12121566B2, “Methods for treating gout” (Horizon Therapeutics USA, Inc., priority 2019, dated 2024).
Read-outs that look alike come from different tables or passages of the source.

Key:
[1] = tested on: patients treated with allopurinol; conditions: cited from earlier work
serum proteins = conditions: cited from earlier work
[2] = cited from earlier work; for detectable in urine: after 8 hours
[3] = cited from earlier work

## Oc1ncnc2[nH]ncc12 [allopurinol]
[1]
  patients who develop allergic reactions: Approximately 2%
  severe hypersensitivity syndrome: about 0.4%

## Cn1cnc([N+](=O)[O-])c1Sc1ncnc2nc[nH]c12 [azathioprine, 6-[(1-methyl-4-nitro-1H-imidazol-5-yl)thio]-1H-purine]
Serum proteins
  bound to serum proteins: 30%
[2]
  detectable in urine: no azathioprine or mercaptopurine is detectable
[2]; oral administration
  oral absorption: well absorbed
[3]; excess sodium hydroxide (0.1N), especially on warming
  stability in solution: hydrolysis to mercaptopurine occurs
[3]; may be dissolved with one molar equivalent of alkali
  solubility in water: insoluble
[3]; neutral or acid pH
  stability in solution: stable

## Sc1ncnc2nc[nH]c12 [mercaptopurine, 6-mercaptopurine]
Serum proteins
  bound to serum proteins: 30%
[2]
  detectable in urine: no azathioprine or mercaptopurine is detectable
